Data reported in patent US6462066B2, “Method and composition for treatment of ischemic neuronal reperfusion injury” (University of South Florida, priority 1999, dated 2002).

Legend:
[1] = Dantrolene treatment of the patient of Example 2 (post-operative bilateral ischemic optic neuropathy), visual acuity and visual fields; type: in vivo, human; conditions: Example 2 patient
Procedure: Their past medical history is significant for an episode of hyperglycemia approximately 45 years previously. They have been a non-smoker for the last 20 years, and prior to that they were a heavy smoker.
The operation lasts for approximately 10 hours. They are under general anesthesia for the duration of the operation. The estimated blood loss is 2200 mL during the operation, of which 1200 mL is replaced via a cell saver, and an additional 2 units of blood is given along with crystalloids. Their blood pressure drops once during the operation to 89 mm Hg. Before the surgery they are able to read with glasses. […] Strong venous pulsations are seen at the optic disc of the left eye. A diagnosis of bilateral ischemic optic neuropathy is made.
(§1) He is placed on intravenous dantrolene, 2 mg/kg body weight q 2 hourly×3 followed q 8 hourly. In addition, […] is placed on solumedrol, 250 mg q 6 hourly. […] visual acuity fields are recorded on a daily basis. On day 3 dantrolene treatment is changed from intravenous to oral 500 mg po tid. On day 4 color vision is restored and on day 5 all treatment is stopped.

[2] = Serum level of dantrolene in the patient of Example 2; type: in vivo, human; conditions: Example 2 patient
Procedure: as §1
The serum level of dantrolene is 14×10^−6 gm/mL on day 4, and 15×10^−6 gm/mL on day 2.

excitotoxic damage = conditions: stated as known; cited from earlier work
[3] = Dantrolene treatment of the patient of Example 1 (post-operative bilateral ischemic optic neuropathy), visual acuity and visual fields; type: in vivo, human; conditions: Example 1 patient
Procedure: A patient undergoes back surgery lasting 8 hours and, upon awakening after 16 hours, complains of not being able to see from their left eye. The surgery had lasted 8 hours, and 1 unit of blood had been lost. During surgery, their systolic blood pressure had dropped to 80 mm Hg. […] They are a contact lens wearer. previously having a corrected visual acuity of 20/20 bilaterally.
There is a relative afferent pupillary defect on the left. They have a sizeable loss of their right visual field, which is illustrated in FIGS. 2A and 2B. […] Both pupils are reactive, varying in diameter from 3.0 to 3.5 mm.
Their extra-ocular muscle movements, intraocular pressures, and anterior segment exam, are within normal limits. […] The right optic disc is of normal color. […] It is pulsatile, and each time a pulse occurs, it jumps away from the optic disc. This can be clearly seen with a 90 diopter lens and a portable Kowa slit lamp, or with a 20 diopter lens and a Keeler indirect opthalmoscope. The retina appears normal in both eyes. […] A clinical diagnosis of posterior ischemic optic neuropathy with resultant field defect and pending loss of vision in the right eye is also made. MRI of the optic nerves confirms these diagnoses. Bilateral swelling of the optic nerves is seen behind the optic discs. The swelling is more marked in the left optic nerve than in the right. MRI confirms that they have a swollen optic left nerve. A diagnosis of bilateral ischemic optic neuropathy is made: the blood supply to the left eye has been occluded, and the same process is occurring in the right eye. Just prior to discovering their loss of sight, their serum calcium is low, and the nurse administers intravenous calcium.
To prevent compression of the blood supply in the right eye, the patient is given high dosed pulsed steroids. However, excitotoxic damage of the retina from reperfusion injury is almost certain in the absence of the treatment of the present invention.
The patient is administered 2 gm solumedrol, and then 1 gm every 6 hours. Dantrolene is administered at 2 mg/kg every 2 hours for three treatments, and then 1 mg/kg every 8 hours.

In the case of O=C1CN(/N=C/c2ccc(-c3ccc([N+](=O)[O-])cc3)o2)C(O)=N1 [Dantrolene], the “visual acuity with glasses” value ([1]; 16 hours postoperatively, intravenous dantrolene 2 mg/kg q 2 hourly x3 then q 8 hourly, with solumedrol, baseline no light perception in either eye) was “counting fingers OU in the superior visual fields”, the color vision ([1]; day 4) was “restored” and the “serum level of dantrolene” value ([2]; day 2 (intravenous dantrolene)) was 15×10^−6 gm/mL. For the same molecule, the “serum level of dantrolene” value ([2]; day 4 (oral 500 mg po tid from day 3)) was 14×10^−6 gm/mL, the “excitotoxic damage in an animal seizure model” value (excitotoxic damage) was “prevents excitotoxic damage” and the “vision of the left eye” value ([3]; 24 hours after initiation of treatment, baseline no perception of light) was “light perception”. For the same molecule, the “corrected visual acuity in the right eye” value ([3]; 24 hours later, dantrolene 2 mg/kg every 2 hours x3 then 1 mg/kg every 8 hours, with solumedrol, baseline uncorrected 20/70) was 20/30, the “vision of the left eye” value ([3]; 72 hours after treatment) was “starts to perceive hand movement” and the “uncorrected visual acuity in the right eye” value ([3]; by the fifth day, baseline 20/70) was 20/50. The inferior field loss ([3]; right eye, at the fifth day (lessens from 48 hours after starting treatment)) was “none”, the “corrected visual acuity in the left eye at distance” value ([3]; two months after discharge) was “counting fingers” and the “corrected visual acuity in the left eye at near distance” value ([3]; two months after discharge) was 20/800.
